The source of these data is US20050288347A1, “Certain triazole-based compounds, compositions, and uses thereof” (priority 2004, published 2005).

Structures are written as SMILES. “Also recorded” adds a separate entry of the source.

One experiment has as its target protein kinase. As to the kind of experiment: HTS ATP-utilizing enzyme assay, off-chip mobility-shift format (Caliper HTS 250). It is filed as biochemical, human. The settings on record: kinase(s) for which the compound exhibits protein kinase inhibitory activity; test compound 10 μM; active = greater than three-sigma from the mean activity of inactive compounds. The procedure, abridged:
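Single-point screen at 10 μM compound in HEPES pH 7.5 buffer with Triton X-100 and BSA, 2.5 h at 20–22 °C. Substrate-to-phosphopeptide ratio measured by off-chip microfluidic mobility shift; EDTA wells as 100% and DMSO wells as 0% control, hits called at three-sigma limits.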
Consider `COc1ccccc1-n1c(SCC(=O)Nc2cccc(C(=O)O)c2)nnc1-c1ccccc1O`, for which the Kinase entry is “AURORA-A”.
With `COC(=O)c1ccccc1NC(=O)CSc1nnc(CNc2ccc(OC)cc2)n1-c1ccc(C)cc1`, the Kinase entry was “PDGFRR-α and AURORA-A and FYN”.
Still for that read-out and setting: under `COc1ccc(N2CCN(C(=O)CSc3nnc(-c4cc5ccccc5cc4O)n3C)CC2)cc1` stands “DAPK1”; under `N#CCSc1nnc(-c2ccc(OC(F)(F)F)cc2)[nH]1` [2-(5-(4-(trifluoromethoxy)phenyl)-4H-1,2,4-triazol-3-ylthio)acetonitrile], “DYRK2; also recorded: FLT-3; also recorded: AURORA-A”; under `CCn1c(S)nnc1COc1ccccc1OC` [4-ethyl-5-((2-methoxyphenoxy)methyl)-4H-1,2,4-triazole-3-thiol], “GSK3-α; also recorded: GSK3-β; also recorded: AURORA-A”.
On the same count and under the same terms, the result for `Cn1c(SCC(=O)c2ccc3c(c2)OCCO3)nnc1-c1ccc(O)cc1` reads “GSK3-β and GSK3-α and MSK1”; that for `COc1ccc(NCc2nnc(SCC#N)n2-c2ccc(C)cc2)cc1`, “FYN and PDGFRR-α and AURORA-A”.
For `Cn1c(COc2ccc3ccccc3c2)nnc1SCC(N)=O`, the Kinase entry is “FYN”.
As for `Cn1c(SCC(=O)Nc2nc3ccccc3s2)nnc1-c1ccco1`, the Kinase result is reported as “GSK3-α”.
Same read-out and setting: under `O=C(CSc1nnc(-c2ccc(O)cc2)n1CC1CCCO1)Nc1nc2c(s1)CCCC2` (stereo not shown) stands “GSK3-β; also recorded: AURORA-A”.
For `CCOc1ccc(NCc2nnc(SCC(=O)NCC3CCCO3)n2-c2ccccc2OC)cc1` (stereo not shown), the Kinase entry is “FYN”.
As for `NC(=O)CSc1nnc(-c2ccc(O)cc2)n1-c1cccc(Cl)c1`, the Kinase result was “GSK3-β; also recorded: GSK3-α”.
On the same count and under the same terms, under `CCn1c(SCC(=O)Nc2cccc(C(C)=O)c2)nnc1-c1ccc(O)cc1` stands “GSK3-α”.
For the compound `CCn1c(CNc2ccc(C)cc2)nnc1SCC#N` [2-(5-((p-toluidino)methyl)-4-ethyl-4H-1,2,4-triazol-3-ylthio)acetonitrile], the Kinase result was “PDGFRR-α and CDK1”.
As for `COc1ccc(-n2c(S)nnc2-c2ccccc2OC)cc1` [5-(2-methoxyphenyl)-4-(4-methoxyphenyl)-4H-1,2,4-triazole-3-thiol], the Kinase entry was “CDK2-cyclinA and CDK2-cyclinE and CDK5”.
Still for that read-out and setting: the result for `C=CCn1c(SCC(=O)NCCCN2CCOCC2)nnc1-c1sc2ccccc2c1Cl` reads “LYNA”.
Regarding `CCn1c(S)nnc1CNc1cccc(Cl)c1` [5-((3-chlorophenylamino)methyl)-4-ethyl-4H-1,2,4-triazole-3-thiol], the Kinase entry was “GSK3-β; also recorded: GSK3-α”.
Still for that read-out and setting: under `CCOC(=O)CSc1nnc(CNc2cc(Cl)ccc2Cl)n1CC` stands “DYRK2”.
Turning to `O=C(CSc1nnc(-c2ccc(O)cc2)n1-c1ccccc1)c1ccccc1`, the Kinase result was “GSK3-α”.
On the same count and under the same terms, the result for `COc1ccc(NCc2nnc(SCC(=O)Nc3ccc(Br)cc3)n2C)cc1` reads “PDGFRR-α and FYN and AURORA-A”; that for `Cc1ccc(NCc2nnc(SCC(=O)OC3CCCCC3)n2-c2ccccc2)cc1Cl`, “PAK2 and CHEK1”; that for `O=C(CSc1nnc(-c2ccc([N+](=O)[O-])cc2)n1CC1CCCO1)N1CCOCC1` (stereo not shown), “PDGFRR-α”.
Still for that read-out and setting: under `CCn1c(CNc2ccc(Cl)cc2)nnc1SCC#N` stands “LYNA and DYRK2”; under `Cc1cc(NC(=O)CSc2nnc(-c3cccnc3)n2-c2ccc(F)cc2)no1`, “FYN”.
For the compound `Nc1nncn1C(=O)Cc1ccc(Cl)cc1` [1-(3-amino-4H-1,2,4-triazol-4-yl)-2-(4-chlorophenyl)ethanone], the Kinase entry is on record as “GSK-3-α; also recorded: GSK-3-β”.
On the same count and under the same terms, the result for `CCn1c(SCC#N)nnc1-c1ccc(S(=O)(=O)N2CCOCC2)cc1` reads “AURORA-A”; that for `CCn1c(SCC#N)nnc1C1CCCCC1` [2-(5-cyclohexyl-4-ethyl-4H-1,2,4-triazol-3-ylthio)acetonitrile], “AURORA-A and MSK1”.
Same read-out and setting: under `COc1ccc(NCc2nnc(SCC(=O)Nc3cccc(C(F)(F)F)c3)n2C)cc1` stands “PDGFRR-α and FYN and FLT-3”.
The same measure, in the same setting: under `CCn1c(S)nnc1CNc1cccc(C(F)(F)F)c1` [4-ethyl-5-((3-(trifluoromethyl)phenylamino)methyl)-4H-1,2,4-triazole-3-thiol] stands “GSK3-α”.
Regarding `Cn1c(CNc2cccc(C(F)(F)F)c2)nnc1SCC(=O)Nc1ccc2c(c1)OCO2`, the Kinase entry was “AURORA-A”.
On the same count and under the same terms, under `N#CCSc1nnc(C2CCCCC2)[nH]1` [2-(5-cyclohexyl-4H-1,2,4-triazol-3-ylthio)acetonitrile] stands “GSK3-α”; under `CCn1c(SCC(=O)NCc2ccco2)nnc1-c1ccccc1`, “FYN”; under `COc1ccccc1OCc1nnc(S)n1C` [5-((2-methoxyphenoxy)methyl)-4-methyl-4H-1,2,4-triazole-3-thiol], “GSK3-α”.
For the compound `COc1ccc(-c2nnc(SCC(=O)OC3CCCCCC3)n2-c2cccc(C(F)(F)F)c2)cc1`, the Kinase entry is listed as “FLT-3”.
Still for that read-out and setting: under `O=C(CSc1nnc(-c2ccc(O)cc2)n1Cc1ccco1)NCc1ccc2c(c1)OCO2` stands “CDK2-cyclinA and CDK5 and CDK2-cyclinE”.
Still for that read-out and setting: under `Cc1ccc(NC(=O)CSc2nnc(-c3ccccc3O)n2-c2ccc(C)cc2)cc1` stands “AURORA-A”; under `COCCn1c(S)nnc1COc1ccc(Cl)cc1` [5-((4-chlorophenoxy)methyl)-4-(2-methoxyethyl)-4H-1,2,4-triazole-3-thiol], “GSK3-α”.
Same read-out and setting: under `COc1ccc(-n2c(S)nnc2-c2ccc(NS(=O)(=O)c3ccc(C)cc3)cc2)cc1` stands “GSK3-β; also recorded: GSK3-α; also recorded: AURORA-A”.
`CC(Sc1nnc(COc2ccccc2)n1C)C(=O)O` (stereo not shown) [2-(4-methyl-5-(phenoxymethyl)-4H-1,2,4-triazol-3-ylthio)propanoic acid]: the Kinase result is “AURORA-A”.

Still in this experiment, the particulars now being: test compound 10 μM; active = activity greater than three-sigma from the mean of the predominately inactive population for that enzyme.
With `O=[N+]([O-])c1ccc(-c2nnc(SCCN3CCOCC3)[nH]2)cc1` [4-(2-(5-(4-nitrophenyl)-4H-1,2,4-triazol-3-ylthio)ethyl)morpholine], the “protein kinase against which the compound exhibits inhibitory activity (Table 3)” value is “GSK3-β; also recorded: GSK3-α; also recorded: AURORA-A”.
For `O=C(O)c1ccc(CSc2nnc(-c3ccncc3)n2Cc2ccco2)cc1`, the “protein kinase against which the compound exhibits inhibitory activity (Table 3)” value was “GSK3-α; also recorded: GSK3-β”.
Same read-out and setting: the result for `Cn1c(SCC(=O)NN(Br)C(=O)c2ccccc2)nnc1C1CCCCC1` reads “SGK1”.
As for `Cn1c(SCc2ccc(C(C)(C)C)cc2)nnc1-c1cccnc1` [3-(5-(4-tert-butylbenzylthio)-4-methyl-4H-1,2,4-triazol-3-yl)pyridine], the “protein kinase against which the compound exhibits inhibitory activity (Table 3)” value is listed as “PDGFRR-α”.
Turning to `OCCSc1nnc(-c2cccs2)[nH]1` [2-(5-(thiophen-2-yl)-4H-1,2,4-triazol-3-ylthio)ethanol], the “protein kinase against which the compound exhibits inhibitory activity (Table 3)” value is given as “DYRK2; also recorded: FLT-3; also recorded: AURORA-A”.
On the same count and under the same terms, the result for `CCOC(=O)c1ccc(CSc2nnc(Cc3ccc(OC)cc3)[nH]2)o1` reads “FLT-3”.
Still for that read-out and setting: the result for `CCn1c(CNc2ccccc2Cl)nnc1SCCN1CCCCC1` reads “MAPKAPK-2”.
Regarding `COc1ccccc1-n1c(SCc2ccc(C(=O)O)cc2)nnc1-c1cccc(Cl)c1`, the “protein kinase against which the compound exhibits inhibitory activity (Table 3)” value is “AURORA-A”.
As for `COc1ccccc1-n1c(SC(C)C(=O)Nc2cccc(NC(=O)c3ccco3)c2)nnc1-c1cccc(Cl)c1` (stereo not shown), the “protein kinase against which the compound exhibits inhibitory activity (Table 3)” value is listed as “ROCK2”.
In the case of `O=C(CSc1nnc(-c2ccc(O)cc2)n1-c1ccccc1)NN(Br)C(=O)c1ccccc1`, the “protein kinase against which the compound exhibits inhibitory activity (Table 3)” value is recorded as “AURORA-A”.
On the same count and under the same terms, the result for `CCn1c(COc2cccc3ccccc23)nnc1SCC(C)C` [4-ethyl-3-(isobutylthio)-5-((naphthalen-1-yloxy)methyl)-4H-1,2,4-triazole] reads “c-TAK1 and CDK1”.
With `COc1ccccc1-n1c(SCCC(=O)O)nnc1-c1cccnc1`, the “protein kinase against which the compound exhibits inhibitory activity (Table 3)” value is reported as “AURORA-A”.
For `COc1ccc(-c2nnc(SCCN3CCCCC3)[nH]2)cc1` [1-(2-(5-(4-methoxyphenyl)-4H-1,2,4-triazol-3-ylthio)ethyl)piperidine], the “protein kinase against which the compound exhibits inhibitory activity (Table 3)” value is reported as “GSK3-α; also recorded: DYRK2; also recorded: GSK3-β”.
On the same count and under the same terms, under `Cn1c(SCc2ccccc2)nnc1-c1ccncc1` [4-(5-(benzylthio)-4-methyl-4H-1,2,4-triazol-3-yl)pyridine] stands “AURORA-A”; under `CCn1c(COc2ccc(OC)cc2)nnc1SCc1ccc(Cl)cc1`, “CDK2-cyclinE”; under `O=C(NCCSc1nnc(-c2ccccc2)[nH]1)c1ccccc1` [N-(2-(5-phenyl-4H-1,2,4-triazol-3-ylthio)ethyl)benzamide], “GSK3-β; also recorded: DYRK2; also recorded: AURORA-A”.
On the same count and under the same terms, under `CNC(=O)CSc1nnc(-c2ccccc2O)n1-c1ccccc1OC` stands “AURORA-A”; under `COc1ccc(-n2c(CNc3ccccc3Cl)nnc2SCc2ccc(Cl)cc2)cc1`, “MAPKALPK-2 and AKT1”.
With `CC(C)(C)c1ccc(CSc2nnc(-c3ccncc3)n2Cc2ccco2)cc1`, the “protein kinase against which the compound exhibits inhibitory activity (Table 3)” value is recorded as “MAPKAPK-2”.
On the same count and under the same terms, the result for `CCOc1ccc2nc(-c3ccc(OC)cc3)cc(-c3nnc(SCc4ccc(F)cc4C(F)(F)F)n3C)c2c1` reads “AURORA-A”.
As to `Cc1ccc(-c2nnc(SCCC(=O)O)n2-c2ccc(C)cc2)cc1` [3-(4,5-dip-tolyl-4H-1,2,4-triazol-3-ylthio)propanoic acid], the “protein kinase against which the compound exhibits inhibitory activity (Table 3)” value is given as “DAPK1”.
`COc1ccc(-c2nnc(SCC(=O)NNC(=O)c3ccc(Br)cc3)n2C)cc1`: the “protein kinase against which the compound exhibits inhibitory activity (Table 3)” value is “CHEK2; also recorded: GSK3-β; also recorded: GSK3-α”.
